Where two headings read alike, the source gives them in different places.
Assays:
human orexin 1 receptor = human orexin 1 receptor (Homo sapiens (Human), UniProt O43613); experiment: Human orexin 1 receptor radioligand binding ([3H]-SB674042 competition); settings: read-out: OR-1 Ki
Description: (§1) The in vitro affinity of the compounds for the human orexin-1 and orexin-2 receptors was determined by competitive radioligand binding using [^3H]SB SB674042 (1-(5-(2-fluoro-phenyl)-2-methyl-thiazol-4-yl)-1-((S)-2-(5-phenyl-(1,3,4)oxadiazol-2-ylmethyl)-pyrrolidin-1-yl)methanone) (Langmead et al., British Journal of Pharmacology 2004, 141:340-346.) and [^3H]EMPA (N-ethyl-2[(6-methoxy-pyridin-3-yl)-(toluene-2-sulfonyl)-amino]-N-pyridin-3-ylmethyl acetamide) (Malherbe et al., British Journal of Pharmacology, 2009, 156(8), 1326-1341), respectively.
Human Orexin 1 Receptor Radioligand Binding Studies
Chinese ovary cells (CHO) stably expressing human orexin 1 receptor (Genebank accession number NM_001526) were grown to confluency in DMEM/F12 (Gibco, Cat #11039), 10% FBS, 1× Pen/Strep, 600 μg/mL G418 media on 150 cm^2 tissue culture plates, washed with 5 mM EDTA in PBS (HyClone Dulbecco's Phoshpate Buffered Saline 1× with Calcium and Magnesium, Cat #SH30264.01, hereafter referred to simply as PBS) and scraped into 50 ml tubes. After centrifugation (2K xG, 10 min at 4° C.), the supernatant was aspirated and the pellets frozen and stored at −80° C. Cells were resuspended in PBS in the presence of 1 tablet of protease inhibitor cocktail (Roche, Cat. #11836145001) per 50 mL. […] Compounds were solubilized in 100% DMSO (Acros Organics, Cat. #61042-1000) and tested over a range of 7 concentrations (from 0.1 nM to 10 μM). The final concentration of DMSO in the reactions is equal to or less than 0.1%. Total and nonspecific binding was determined in the absence and presence of 10 μM (1-(6,8-difluoro-2-methylquinolin-4-yl)-3-[4-(dimethylamino)phenyl]urea, CAS Registry #288150-92-5). The total volume of each reaction is 200 μL (20 μL of diluted compounds, 80 μL of [^3H]-SB674042 diluted in PBS and 100 μL of the cell suspension). Reactions were run for 60 min at room temperature and terminated by filtration through GF/C filter plates (PerkinElmer, Cat. #6005174) presoaked in 0.3% polyethylenimine using the cell harvester (PerkinElmer Filtermate). The plates were washed 3 times by aspirating 30 ml PBS through the plates. Plates were dried in 55° C. oven for 60 min, scintillation fluid was added, and the radioactivity was counted on a Topcount (Packard).

human orexin-2 receptor = human orexin-2 receptor (Homo sapiens (Human), UniProt O43614); experiment: Human orexin 2 receptor radioligand binding ([3H]-EMPA competition); settings: read-out: OR-2 Ki
Description: as §1
Human Orexin 2 Receptor Radioligand Binding Studies
HEK293 stably expressing human orexin-2 receptor (Genebank accession number NM_001526) were grown to confluency in DMEM/F12 (Gibco, Cat #11039), in DMEM, 10% FBS, 1× Pen/Strep, 1× NaPyruvate, 1×HEPES, 600 ug/ml G418 media on 150 cm^2 tissue culture plates, washed with 5 mM EDTA in PBS (HyClone Dulbecco's Phosphate Buffered Saline 1× with Calcium and Magnesium, Cat #SH30264.01, hereafter referred to simply as PBS) and scraped into 50 ml tubes. After centrifugation (2K xG, 10 min at 4° C.), the supernatant was aspirated and the pellets frozen and stored at −80° C. Cells were resuspended in PBS in the presence of 1 tablet of protease inhibitor cocktail (Roche, Cat. #11836145001) per 50 mL. […] Competition binding experiments in 96 well polypropylene plates were performed using [^3H]-EMPA (Moravek Corporation, specific activity=27 Ci/mmol), diluted to a […] concentration in PBS (5 nM final concentration). Compounds were solubilized in 100% DMSO (Acros Organics, Cat. #61042-1000) and tested over a range of 7 concentrations (from 0.1 nM to 10 μM). The final concentration of DMSO in the reactions is equal to or less than 0.1%. Total and nonspecific binding was determined in the absence and presence of 10 μM (N-[2-(3,4-dimethoxyphenyl)ethyl]-N-methylnaphthalene-1-carboxamide, CAS Registry #1089563-88-1). The total volume of each reaction is 200 μL (20 μL of diluted compounds, 80 μL of [^3H]-EMPA diluted in PBS and 100 μL of the cell suspension). Reactions were run for 60 min at room temperature and terminated by filtration through GF/C filter plates (PerkinElmer, Cat. #6005174) presoaked in 0.3% polyethylenimine using the cell harvester (Perkin Elmer Filtermate). The plates were washed 3 times by aspirating 30 ml PBS through the plates. Plates were dried in 55° C. oven for 60 min, scintillation fluid was added, and the radioactivity was counted on a Topcount (Packard).

[1] = CHO cells stably expressing human orexin 1 receptor, [3H]-SB674042 4 nM final
[2] = HEK293 cells stably expressing human orexin-2 receptor, [3H]-EMPA 5 nM final

Sequence of human orexin-2 receptor (O43614 whole entry): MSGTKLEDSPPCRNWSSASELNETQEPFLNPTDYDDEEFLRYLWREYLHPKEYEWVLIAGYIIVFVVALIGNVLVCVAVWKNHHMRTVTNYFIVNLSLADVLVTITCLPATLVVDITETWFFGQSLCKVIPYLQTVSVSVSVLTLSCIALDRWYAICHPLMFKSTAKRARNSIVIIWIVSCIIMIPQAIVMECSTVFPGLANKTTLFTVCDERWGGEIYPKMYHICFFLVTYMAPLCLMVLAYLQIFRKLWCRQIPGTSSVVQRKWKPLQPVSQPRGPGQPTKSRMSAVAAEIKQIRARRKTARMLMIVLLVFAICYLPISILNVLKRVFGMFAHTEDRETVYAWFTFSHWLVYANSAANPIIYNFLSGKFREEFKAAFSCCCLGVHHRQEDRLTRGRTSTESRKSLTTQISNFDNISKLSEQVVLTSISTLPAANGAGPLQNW
Sequence of human orexin 1 receptor (O43613 whole entry): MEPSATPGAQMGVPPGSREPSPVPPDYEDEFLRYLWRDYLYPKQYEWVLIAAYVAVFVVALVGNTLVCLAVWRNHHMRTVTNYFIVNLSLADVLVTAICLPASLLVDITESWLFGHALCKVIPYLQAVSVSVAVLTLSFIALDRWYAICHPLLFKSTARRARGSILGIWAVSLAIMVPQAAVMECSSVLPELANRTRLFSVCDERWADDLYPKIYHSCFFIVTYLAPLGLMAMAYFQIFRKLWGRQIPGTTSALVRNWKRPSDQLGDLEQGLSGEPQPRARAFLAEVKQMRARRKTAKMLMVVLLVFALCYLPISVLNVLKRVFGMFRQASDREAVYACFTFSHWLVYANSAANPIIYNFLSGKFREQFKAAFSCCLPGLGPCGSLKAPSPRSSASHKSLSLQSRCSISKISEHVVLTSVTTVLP

Ki (human orexin 1 receptor; [1]) | Ki (human orexin-2 receptor; [2]) | SMILES | Ki (human orexin-2 receptor) | Ki (human orexin 1 receptor)
6500 nM | 208 nM | COc1ccc(-n2nccn2)c(C(=O)N2CC[C@H]3CN(c4cc(C)ccn4)[C@H]3C2)c1 [Example 139, (1R,6S)-3-{[5-Methoxy-2-(2H-1,2,3-triazol-2-yl)phenyl]carbonyl}-8-(4-methylpyridin-2-yl)-3,8-diazabicyclo[4.2.0]octane] | – | –
9000 nM | 734 nM | Cc1cccc(C(=O)N2CC[C@H]3CN(c4cc(N(C)C)ccn4)[C@H]3C2)c1-n1nccn1 [Example 141, N,N-Dimethyl-2-[(1R,6S)-3-{[3-methyl-2-(2H-1,2,3-triazol-2-yl)phenyl]carbonyl}-3,8-diazabicyclo[4.2.0]oct-8-yl]pyridin-4-amine] | – | –
10000 nM | 1300 nM | Cc1cc(C)nc(N2C[C@@H]3CCN(C(=O)c4cnoc4-c4ccccc4)C[C@@H]32)n1 [Example 176, (1R,6S)-8-(4,6-Dimethylpyrimidin-2-yl)-3-[(5-phenylisoxazol-4-yl)carbonyl]-3,8-diazabicyclo[4.2.0]octane] | – | –
1040 nM | 50 nM | Cc1cc(N2C[C@@H]3CCN(C(=O)c4ccc(F)cc4-n4nccn4)C[C@@H]32)nc(C(F)(F)F)n1 [Example 34, (1R,6S)-(4-Fluoro-2-[1,2,3]triazol-2-yl-phenyl)-[8-(6-methyl-2-trifluoromethyl-pyrimidin-4-yl)-3,8-diaza-bicyclo[4.2.0]oct-3-yl]-methanone] | – | –
8200 nM | 234 nM | Cc1cc(C)nc(N2C[C@@H]3CCN(C(=O)c4ccc(C)nc4-n4ccnn4)C[C@@H]32)n1 [Example 88, (1R,6S)-8-(4,6-Dimethylpyrimidin-2-yl)-3-{[6-methyl-2-(1H-1,2,3-triazol-1-yl)pyridin-3-yl]carbonyl}-3,8-diazabicyclo[4.2.0]octane] | – | –
78 nM | 144 nM | O=C(c1ccccc1Br)N1CC[C@H]2CN(c3cnc4ccccc4n3)[C@H]2C1 [Example 13, (1R,6S)(2-Bromo-phenyl)-(8-quinoxalin-2-yl-3,8-diaza-bicyclo[4.2.0]oct-3-yl)-methanone] | – | –
687 nM | 82 nM | Cc1cc(C)nc(N2C[C@@H]3CCN(C(=O)c4cccc(F)c4-c4ncccn4)C[C@@H]32)c1 [Example 153, (1R,6S)-8-(4,6-Dimethylpyridin-2-yl)-3-[(3-fluoro-2-pyrimidin-2-ylphenyl)carbonyl]-3,8-diazabicyclo[4.2.0]octane] | – | –
10000 nM | 10000 nM | Cc1nccnc1N1C[C@@H]2CCN(C(=O)c3c(F)cccc3-n3nccn3)C[C@@H]21 [Example 106, (1R,6S)-3-{[2-Fluoro-6-(2H-1,2,3-triazol-2-yl)phenyl]carbonyl}-8-(3-methylpyrazin-2-yl)-3,8-diazabicyclo[4.2.0]octane] | – | –
9650 nM | 1050 nM | Cc1cc(C)nc(N2CC3CN(C(=O)c4ccccc4Br)CC32)n1 (stereo not shown) [Example 58, 3-[(2-Bromophenyl)carbonyl]-6-(4,6-dimethylpyrimidin-2-yl)-3,6-diazabicyclo[3.2.0]heptane] | – | –
8700 nM | 200 nM | Cc1cnc(N2C[C@@H]3CCN(C(=O)c4ccccc4-n4nccn4)C[C@@H]32)cn1 [Example 100, (1R,6S)-8-(5-Methylpyrazin-2-yl)-3-{[2-(2H-1,2,3-triazol-2-yl)phenyl]carbonyl}-3,8-diazabicyclo[4.2.0]octane] | – | –
32 nM | 17 nM | O=C(c1ccccc1-n1nccn1)N1CC[C@H]2CN(c3nc4cc(Cl)ccc4o3)[C@H]2C1 [Example 119, 5-Chloro-2-[(1R,6S)-3-{[2-(2H-1,2,3-triazol-2-yl)phenyl]carbonyl}-3,8-diazabicyclo[4.2.0]oct-8-yl]-1,3-benzoxazole] | – | –

The next lines start with the compound.

SMILES | Ki (human orexin 1 receptor; [1]) | Ki (human orexin-2 receptor; [2]) | Ki (human orexin-2 receptor) | Ki (human orexin 1 receptor)
O=C(c1cc(F)ccc1-n1nccn1)N1CC[C@H]2CN(c3nc4cc(Cl)ccc4o3)[C@H]2C1 [Example 121, 5-Chloro-2-[(1R,6S)-3-{[5-fluoro-2-(2H-1,2,3-triazol-2-yl)phenyl]carbonyl}-3,8-diazabicyclo[4.2.0]oct-8-yl]-1,3-benzoxazole] | 91 nM | – | 75 nM | –
COc1ccc(C(=O)N2CC[C@H]3CN(c4cc(C)cc(C)n4)[C@H]3C2)c(-n2nccn2)c1 [Example 149, (1R,6S)-8-(4,6-Dimethylpyridin-2-yl)-3-{[4-methoxy-2-(2H-1,2,3-triazol-2-yl)phenyl]carbonyl}-3,8-diazabicyclo[4.2.0]octane] | 10000 nM | 190 nM | – | –
Cc1cc(C)nc(N2C[C@@H]3CCN(C(=O)c4nc(C)sc4-c4ccc(F)cc4)C[C@@H]32)n1 [Example 173, (1R,6S)-8-(4,6-Dimethylpyrimidin-2-yl)-3-{[5-(4-fluorophenyl)-2-methyl-1,3-thiazol-4-yl]carbonyl}-3,8-diazabicyclo[4.2.0]octane] | 2150 nM | 62 nM | – | –
Cc1cc(C)nc(N2C[C@@H]3CCN(C(=O)c4ccccc4-c4ncccn4)C[C@@H]32)n1 [Example 28, (1R,6S)-[8-(4,6-Dimethyl-pyrimidin-2-yl)-3,8-diaza-bicyclo[4.2.0]oct-3-yl]-(2-pyrimidin-2-yl-phenyl)-methanone] | 330 nM | 21 nM | – | –
O=C(c1ccccc1-c1cccs1)N1C[C@H]2CN(c3nccc(-c4ccccc4)n3)[C@H]2C1 (single isomer, unassigned) [Example 56, 6-(4-Phenylpyrimidin-2-yl)-3-[(2-thiophen-2-ylphenyl)carbonyl]-3,6-diazabicyclo[3.2.0]heptane] | 55 nM | 129 nM | – | –
COc1ccccc1C(=O)N1CC2CN(c3cnc4ccccc4n3)C2C1 (stereo not shown) [Example 54, 2-{3-[(2-Methoxyphenyl)carbonyl]-3,6-diazabicyclo[3.2.0]hept-6-yl}quinoxaline] | 3450 nM | 2420 nM | – | –
COc1ccc(C(=O)N2CC[C@H]3CN(c4nc(C)cc(C)n4)[C@H]3C2)c(-n2nccn2)n1 [Example 162, (1R,6S)-8-(4,6-Dimethylpyrimidin-2-yl)-3-{[6-methoxy-2-(2H-1,2,3-triazol-2-yl)pyridin-3-yl]carbonyl}-3,8-diazabicyclo[4.2.0]octane] | 10000 nM | 380 nM | – | –
Cc1cnc(N2C[C@@H]3CCN(C(=O)c4cccc(F)c4-n4nccn4)C[C@@H]32)cn1 [Example 103, (1R,6S)-3-{[3-Fluoro-2-(2H-1,2,3-triazol-2-yl)phenyl]carbonyl}-8-(5-methylpyrazin-2-yl)-3,8-diazabicyclo[4.2.0]octane] | – | 360 nM | – | 10000 nM
COc1ccc(-n2nccn2)c(C(=O)N2CC[C@H]3CN(c4cc(N(C)C)ccn4)[C@H]3C2)c1 [Example 150, 2-[(1R,6S)-3-{[5-Methoxy-2-(2H-1,2,3-triazol-2-yl)phenyl]carbonyl}-3,8-diazabicyclo[4.2.0]oct-8-yl]-N,N-dimethylpyridin-4-amine] | 10000 nM | 532 nM | – | –
